From PMC7352342, “Inhibition of Patched Drug Efflux Increases Vemurafenib Effectiveness against Resistant Braf^V600E Melanoma” (Cancers, 2020)

Tests used:
[1] = Cytotoxicity assay (neutral red), A375 cells; type: cell-based, human; conditions: human, A375 melanoma cells, A375; 24 or 48 h; read-out: sPAH-IC50 (cytotoxicity of sPAH alone)
Experimental: (§1) Human melanoma cell lines A375 and MeWo were purchased from ATCC, and cultured in DMEM medium supplemented with 10% fetal bovine serum and penicillin/streptomycin (Invitrogen) at 37 °C in a 5% CO2/95% water-saturated air atmosphere. Melanoma cell lines SKMEL 28, SKMEL V3, WM9S, and WM9R were provided by Robert Ballotti (C3M, Nice, France). MeWo-dxrR cells were obtained by adding increasing concentrations of doxorubicin, up to 0.2 µM, in the culture medium over 6 months. These cells were grown in medium supplemented with 0.2 µM dxr. WM9R cells were obtained by adding increasing concentrations of vemurafenib, up to 5 µM, in the culture medium over 6 months. These cells were grown in medium supplemented with 5 µM vemurafenib. HEK cells were grown in 75 mm tissue culture dishes (Falcon, Franklin Lakes, NJ, USA) in Dulbecco’s modified Eagle’s medium (Gibco, Life Technologies, Saint Aubin, France) supplemented with 10% fetal calf serum (Hyclone, Thermo Fisher Scientific GMBH, Ulm, Germany) and 1% penicillin/streptomycin (Gibco, Life Technologies, Saint Aubin, France) in a humidified incubator at 37 °C (5% CO2).
(§2) Cells were seeded in 96-well plates in triplicate and grown in medium to achieve 70 to 80% confluence. Medium was then removed and replaced with 100 µL/well of complete medium containing PAH or DMSO as a control. After 2 h, 100 µL of complete medium containing serial dilutions of dxr, cisplatin or vemurafenib were added. Plates were incubated at 37 °C and 5% CO2. After 24 or 48 h, cells were incubated for 3 h at 37 °C with 100 µL/well neutral red (NR) solution (50 µg/mL in medium) following the manufacturer’s protocol. Measurements were made in microplate readers (Multiskan Go Microplate Spectrophotometer from Thermo Scientific).

A375 cells [2] = assay: Cytotoxicity assay (neutral red), A375 cells; type: cell-based, human; conditions: A375
Experimental: as §1, §2

A375 cells [3] = assay: BODIPY-cholesterol efflux measurement, A375 cells; type: cell-based, human; conditions: sPAH in efflux buffer, 30 min
human Smoothened = target: T1, human Smoothened (Homo sapiens, UniProt Q99835); assay: Microscale thermophoresis on membranes from yeast expressing human Smoothened; type: binding; conditions: MST; sPAH 15 nM to 250 µM
T1 construct: made in house; host or cells: yeast (membrane preparation)
T1 sequence (Q99835 28-787): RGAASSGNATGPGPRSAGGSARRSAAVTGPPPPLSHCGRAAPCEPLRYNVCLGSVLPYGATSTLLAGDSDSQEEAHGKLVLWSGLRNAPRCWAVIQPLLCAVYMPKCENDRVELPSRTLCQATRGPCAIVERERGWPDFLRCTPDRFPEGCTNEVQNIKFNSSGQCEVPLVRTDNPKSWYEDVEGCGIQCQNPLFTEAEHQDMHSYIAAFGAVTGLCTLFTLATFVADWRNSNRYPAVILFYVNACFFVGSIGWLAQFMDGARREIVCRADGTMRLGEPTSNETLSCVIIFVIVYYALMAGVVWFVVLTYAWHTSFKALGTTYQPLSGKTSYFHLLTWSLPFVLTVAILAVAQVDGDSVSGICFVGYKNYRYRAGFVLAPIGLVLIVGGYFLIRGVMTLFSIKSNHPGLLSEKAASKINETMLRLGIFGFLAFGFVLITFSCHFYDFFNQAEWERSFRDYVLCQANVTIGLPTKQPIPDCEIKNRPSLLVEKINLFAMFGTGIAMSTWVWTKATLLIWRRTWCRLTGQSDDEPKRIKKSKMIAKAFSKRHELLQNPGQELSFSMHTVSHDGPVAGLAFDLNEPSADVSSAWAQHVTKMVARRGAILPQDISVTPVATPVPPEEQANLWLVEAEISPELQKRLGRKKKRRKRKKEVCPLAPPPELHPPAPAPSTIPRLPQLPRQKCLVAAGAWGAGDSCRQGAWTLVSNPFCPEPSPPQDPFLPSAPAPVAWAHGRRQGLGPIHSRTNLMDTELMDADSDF
Experimental: Microscale thermophoresis (MST) is a biophysical technique that measures the strength of the interaction between two molecules by detecting a variation in the fluorescence signal of a fluorescently labeled target as a result of an IR-laser induced temperature change. The range of the variation in the fluorescence signal correlates with the binding of a ligand to the fluorescent target.
Membranes from yeast expressing human Ptch1 or human Smoothened were incubated at 30 µg/mL with 20 nM of the fluorescent dye NT-647 2nd gen (NanoTemper Technologies, München, Germany) to label the His-tag present at the c-terminus of both proteins. […] The fluorescence within the capillary is excited and detected through the same objective. […] The MST response of fluorescent proteins within the temperature gradient is detected. After activation of the IR laser, a decrease in fluorescence is observed which corresponds to temperature-related intensity change (TRIC) triggered by the fast temperature change and thermophoretic movement of the fluorescent proteins out of the heated sample volume. […] For analysis, the change in MST signal is expressed as the change in the normalized fluorescence (Fnorm), which is defined as F1/F0. […] The sPAH Kd was determined for 3 independent experiments.

[4] = Metabolic stability with mice liver microsomes and NADPH; type: in vitro ADME
Experimental: A 10 µL aliquot of the sPAH stock solution (10 mM in DMSO) was diluted in 990 µL of a mixture of acetonitrile and water. This solution was then diluted 100-fold in phosphate buffer containing mice liver microsomes (0.5 mg/mL), 1 mM NADPH, and 3 mM MgCl2, and incubated at 37 °C. After 2, 10, 20, 40, and 60 min, 70 µL aliquots were collected and mixed with 70 µL acetonitrile at 0 °C. Equivalent experiments were performed without NADPH in order to identify chemical instability or enzymatic process not depending on NADPH, and with testosterone as a positive control. The enzymatic reaction was stopped by addition of acetonitrile. Samples were analyzed by LC–MS/MS on an UHPLC LC–MS 8030 (Shimazu, Kyoto, Japan).
For metabolite identification, 50 µM of sPAH were incubated with mice liver microsomes and NADPH. Two samples were prepared: one in which acetonitrile was added immediately (t0) and one in which acetonitrile was added after 30 min. After centrifugation for 5 min at 15,000× g, 2 samples of each supernatant were analyzed by LC–MS/MS on a LC–MS 8030 (Shimazu, Kyoto, Japan) and detected by selected ion monitoring (SIM).

For `COc1cc(C)c(CC/C(C)=C/Cc2cc(O)ccc2O)c(C)c1C` [sPAH, Panicein A hydroquinone], the IC50 [1] was ~40 µM, the IC50 (A375 cells [2]; 24 or 48 h, read-out: sPAH-IC50 (cytotoxicity of sPAH alone)) was 38.3 ± 6.8 µM and the “sensitivity of cells to vemurafenib in the presence of sPAH” value (A375 cells [2]; 24 h, sPAH between 10 and 20 µM) was “significantly increased”. The “IC50 of cisplatin in the presence of sPAH” value (A375 cells [2]; sPAH 20 µM vs DMSO (Figure S2)) was “significantly decreased”, the “efflux of BODIPY-cholesterol” value (A375 cells [3]) was “inhibited the efflux of cholesterol” and the “binding to membranes from yeast expressing Smoothened” value (human Smoothened) was “does not bind”. For the same compound, the “metabolic fate (LC-MS/MS)” value ([4]; 50 µM, mice liver microsomes and NADPH, 30 min) was “rapidly oxidized in its quinone form” and the half-life at 1 µM ([4]; mouse, liver microsomes, mice microsomes and NADPH, 37 °C) was 1 min.
